In ChEMBL document CHEMBL1145152, “Design, synthesis, and antifolate activity of new analogues of piritrexim and other diaminopyrimidine dihydrofolate reductase inhibitors with omega-carboxyalkoxy or omega-carboxy-1-alkynyl substitution in the side chain” (J Med Chem, 2005):

Legend:
[1] = Selectivity index measured as IC50(Rat)/IC50(Mycobacterium avium)
Dihydrofolate reductase [2] = target: T1, Dihydrofolate reductase (Rattus norvegicus, UniProt Q920D2)
T1 sequence (Q920D2 whole entry): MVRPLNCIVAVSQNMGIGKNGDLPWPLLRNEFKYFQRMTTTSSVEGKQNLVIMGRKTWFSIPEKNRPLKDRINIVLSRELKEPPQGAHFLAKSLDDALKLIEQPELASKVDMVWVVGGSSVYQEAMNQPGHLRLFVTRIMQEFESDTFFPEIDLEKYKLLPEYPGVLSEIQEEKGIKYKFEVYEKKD
Description: Inhibitory concentration against rat DHFR

Dihydrofolate reductase [3] = target: T2, Dihydrofolate reductase (Pneumocystis carinii, UniProt P16184)
T2 sequence (P16184 whole entry): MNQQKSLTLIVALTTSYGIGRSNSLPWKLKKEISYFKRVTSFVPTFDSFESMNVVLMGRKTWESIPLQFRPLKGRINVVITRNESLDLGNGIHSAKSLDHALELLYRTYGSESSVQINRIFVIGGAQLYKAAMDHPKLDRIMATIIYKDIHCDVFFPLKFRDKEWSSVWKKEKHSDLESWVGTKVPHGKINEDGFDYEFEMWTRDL
Description: Inhibitory concentration against Pneumocystis carinii DHFR

[4] = target: T3, Bifunctional dihydrofolate reductase-thymidylate synthase (Toxoplasma gondii, UniProt Q07422)
T3 sequence (Q07422 whole entry): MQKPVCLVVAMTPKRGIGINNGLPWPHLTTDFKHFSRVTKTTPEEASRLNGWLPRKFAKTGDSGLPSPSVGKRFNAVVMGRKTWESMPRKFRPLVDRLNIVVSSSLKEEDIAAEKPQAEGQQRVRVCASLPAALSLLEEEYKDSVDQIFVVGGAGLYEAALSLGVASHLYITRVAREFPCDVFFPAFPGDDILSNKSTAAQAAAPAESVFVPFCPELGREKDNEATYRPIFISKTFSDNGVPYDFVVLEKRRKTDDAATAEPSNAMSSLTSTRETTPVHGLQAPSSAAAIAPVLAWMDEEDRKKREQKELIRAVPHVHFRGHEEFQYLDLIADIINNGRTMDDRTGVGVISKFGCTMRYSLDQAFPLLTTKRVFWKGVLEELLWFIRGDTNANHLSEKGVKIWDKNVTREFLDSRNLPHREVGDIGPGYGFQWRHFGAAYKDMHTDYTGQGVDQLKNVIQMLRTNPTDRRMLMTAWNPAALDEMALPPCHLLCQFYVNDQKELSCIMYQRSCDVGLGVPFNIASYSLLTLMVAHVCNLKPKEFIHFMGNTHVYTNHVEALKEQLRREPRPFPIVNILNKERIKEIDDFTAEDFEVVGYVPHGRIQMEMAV
Description: Inhibitory concentration against Toxoplasma gondii DHFR

Dihydrofolate reductase [5] = target: T4, Dihydrofolate reductase (Mycobacterium avium, UniProt O30463)
T4 sequence (O30463 whole entry): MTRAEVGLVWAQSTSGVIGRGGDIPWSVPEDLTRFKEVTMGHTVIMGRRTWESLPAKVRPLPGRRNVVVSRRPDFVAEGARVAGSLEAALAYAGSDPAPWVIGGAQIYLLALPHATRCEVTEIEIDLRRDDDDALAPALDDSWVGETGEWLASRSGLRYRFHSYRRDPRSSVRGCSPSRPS
Description: Inhibitory concentration against Mycobacterium avium DHFR

[6] = Concentration causing inhibition of CCRF-CEM human leukemic lymphoblasts growth in 72 hr culture; format: functional, cell-based
[7] = Concentration causing inhibition of CCRF-CEM human leukemic lymphoblasts growth in a 72 hr culture; format: functional, cell-based

SMILES	Selectivity index [1]	IC50 (Dihydrofolate reductase [2])	IC50 (Dihydrofolate reductase [3])	IC50 [4]	IC50 (Dihydrofolate reductase [5])	IC50 [6]	IC50 [7]
COc1ccc(OCc2ccccc2)c(Cc2cnc3nc(N)nc(N)c3c2C)c1	20	170 nM	96 nM	16 nM	8.6 nM		
CCOC(=O)CCCCCOc1ccc(OC)c(Cc2cnc3nc(N)nc(N)c3c2C)c1	1.8	21 nM	35 nM	13 nM	12 nM		
COc1cc(Cc2cnc(N)nc2N)cc(C#CCCC(=O)O)c1Br	1300	630 nM	71 nM	15 nM	0.47 nM		
CCOC(=O)CCCCOc1ccc(OC)c(Cc2cnc3nc(N)nc(N)c3c2C)c1	1.5	14 nM	28 nM	11 nM	9.4 nM		
COc1ccc(OCCCC(=O)O)cc1Cc1cnc2nc(N)nc(N)c2c1C	8.5	2.2 nM	0.43 nM	1.9 nM	0.26 nM	3.7 µM	
COc1ccc(I)cc1Cc1cnc2nc(N)nc(N)c2c1C	5.4	5 nM	5.8 nM	4.1 nM	0.92 nM		
Nc1nc(N)c2nc(CN3c4ccccc4C=Cc4c(C#CCCCC(=O)O)cccc43)cnc2n1	210	1300 nM	12 nM	21 nM	6.3 nM		
COc1ccc(OCCCC(=O)O)c(Cc2cnc3nc(N)nc(N)c3c2C)c1	28	9.1 nM	0.17 nM	2.3 nM	0.32 nM	5.3 µM	
CCOC(=O)CCCOc1ccc(OC)cc1Cc1cnc2nc(N)nc(N)c2c1C	17	93 nM	83 nM	10 nM	5.6 nM		
COc1ccc(OCCCCC(=O)O)cc1Cc1cnc2nc(N)nc(N)c2c1C	7.5	2.2 nM	0.51 nM	2.3 nM	0.29 nM		
COc1ccc(C#CCCC(=O)O)c(Cc2cnc3nc(N)nc(N)c3c2C)c1	96	55 nM	0.65 nM	4.1 nM	0.57 nM		
COc1ccc(C#CCCCC(=O)O)c(Cc2cnc3nc(N)nc(N)c3c2C)c1	18	24 nM	1.2 nM	5.8 nM	1.3 nM	2.8 µM	
Nc1nc(N)c2nc(CN3c4ccccc4C=Cc4c(C#CCCC(=O)O)cccc43)cnc2n1	190	560 nM	230 nM	77 nM	2.9 nM		
COc1ccc(OC)c(Cc2cnc3nc(N)nc(N)c3c2C)c1 [PIRITREXIM]							0.013 µM
CCOC(=O)CCCOc1ccc(OC)c(Cc2cnc3nc(N)nc(N)c3c2C)c1	2.3	4.2 nM	6.5 nM	3.4 nM	1.8 nM		
COc1ccc(OCCCCCC(=O)O)cc1Cc1cnc2nc(N)nc(N)c2c1C	5.9	2 nM	1.3 nM	2 nM	0.35 nM		
COc1ccc(I)c(Cc2cnc3nc(N)nc(N)c3c2C)c1	2.2	4 nM	3.8 nM	5.8 nM	1.8 nM		
COc1ccc(C#CCCC(=O)O)cc1Cc1cnc2nc(N)nc(N)c2c1C	5.6	0.32 nM	0.097 nM	0.46 nM	0.057 nM		
COc1ccc(C#CCCCCC(=O)O)cc1Cc1cnc2nc(N)nc(N)c2c1C	5.8	4 nM	1.8 nM	3.2 nM	0.69 nM		
COc1ccc(C#CCCCC(=O)O)cc1Cc1cnc2nc(N)nc(N)c2c1C	5.6	5.7 nM	1.4 nM	4.3 nM	1 nM		6.1 µM
